According to ChEMBL document CHEMBL1201862, “PubChem BioAssay data set” (2004):
Active and inactive are the calls of the source.

Columns and labels:
[1] = off-target signal loss in HeLa-CEM21 co-culture – HeLa F-luc CTL cells, cherry-picked, counter-screen for HIV-1 Env fusion inhibitor project, dose response (AID 652040); format: functional, cell-based;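 note: potency for signal decrease marking cytotoxic or nonspecific inhibition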
[2] = blockers of HIV-1 ZM109 envelope-driven cell-cell fusion – HeLa effector, CEM target cells, luciferase, cherry-pick, dose response (AID 652058); format: functional, cell-based;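 note: luciferase signal from HIV-1 Env mediated cell-cell fusion of effector and target cells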
[3] = target: T1, Heat shock factor protein 1 (Mus musculus, UniProt P38532); test: decrease of HSF1-responsive luciferase luminescence – cell-based, NIH3T3, dose retest, confirmation (AID 2382); format: functional;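 note: NIH3T3 fibroblasts with HSF1-driven luciferase reporter stressed by proteasome inhibitor MG132; luminescence from HSF1-driven luciferase expression after 8 hours of MG132 stress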
T1 sequence (P38532 whole entry): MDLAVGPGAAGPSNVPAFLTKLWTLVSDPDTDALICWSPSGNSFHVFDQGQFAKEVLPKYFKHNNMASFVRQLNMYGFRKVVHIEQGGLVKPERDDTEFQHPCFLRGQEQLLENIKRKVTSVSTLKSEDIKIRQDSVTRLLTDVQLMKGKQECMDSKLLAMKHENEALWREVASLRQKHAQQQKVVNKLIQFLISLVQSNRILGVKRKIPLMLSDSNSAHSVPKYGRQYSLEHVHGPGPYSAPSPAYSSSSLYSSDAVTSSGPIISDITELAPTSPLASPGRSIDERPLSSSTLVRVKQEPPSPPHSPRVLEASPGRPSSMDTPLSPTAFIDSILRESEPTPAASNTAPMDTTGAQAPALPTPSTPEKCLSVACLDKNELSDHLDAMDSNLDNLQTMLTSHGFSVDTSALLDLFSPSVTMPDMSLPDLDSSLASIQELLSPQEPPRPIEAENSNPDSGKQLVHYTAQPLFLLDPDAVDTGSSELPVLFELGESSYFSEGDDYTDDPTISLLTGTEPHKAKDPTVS

[4] = HIV-1 AD8 envelope cell-cell fusion blockers – cherry-pick, dose response (AID 652062); format: functional, cell-based;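 note: luciferase signal from cell-cell fusion driven by HIV-1 clade B AD8 Env; potency is for inhibitors of fusion seen as a drop in luminescence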
[5] = blockers of HIV-1 envelope-mediated cell-cell fusion – cherry-pick, dose response (AID 652057); format: functional, cell-based
Fatty acid synthase [6] = target: T2, Fatty acid synthase (Homo sapiens, UniProt P49327); test: inhibition of human FAS-TE enzyme activity – biochemical, endpoint fluorescence intensity, uHTS hits, dose response (AID 624327); format: functional;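 note: fluorescence from hydrolysis of an O-methyl fluorescein acyl ester substrate by the enzyme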
Fatty acid synthase [7] = target: T2, Fatty acid synthase; test: inhibition of human FAS-TE enzyme activity – biochemical, kinetic fluorescence intensity, dose response (AID 624326); format: functional;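 note: rate of fluorescence rise from hydrolysis of a fluorogenic O-methyl fluorescein ester substrate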
[8] = target: Voltage-dependent T-type calcium channel subunit alpha-1H (Homo sapiens, UniProt O95180); format: functional;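 note: channel activity triggered by adding a high calcium stimulation buffer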
[9] = target: T3, Polyadenylate-binding protein 1 (Homo sapiens, UniProt P11940); test: MLLE domain peptide-binding blockers, IC50 – biochemical, fluorescence polarization, FITC-PAM2 peptide, dose response (AID 602259); format: functional; conditions: read-out: IC50_Mean
Leucine aminopeptidase = target: T4, Leucine aminopeptidase (Plasmodium falciparum 3D7, UniProt Q8IL11); test: P. falciparum M17LAP inhibitors, primary screen, biochemical, fluorogenic H-Leu-NHMec substrate, 1536-well (AID 1619); format: functional
T4 sequence (Q8IL11 whole entry): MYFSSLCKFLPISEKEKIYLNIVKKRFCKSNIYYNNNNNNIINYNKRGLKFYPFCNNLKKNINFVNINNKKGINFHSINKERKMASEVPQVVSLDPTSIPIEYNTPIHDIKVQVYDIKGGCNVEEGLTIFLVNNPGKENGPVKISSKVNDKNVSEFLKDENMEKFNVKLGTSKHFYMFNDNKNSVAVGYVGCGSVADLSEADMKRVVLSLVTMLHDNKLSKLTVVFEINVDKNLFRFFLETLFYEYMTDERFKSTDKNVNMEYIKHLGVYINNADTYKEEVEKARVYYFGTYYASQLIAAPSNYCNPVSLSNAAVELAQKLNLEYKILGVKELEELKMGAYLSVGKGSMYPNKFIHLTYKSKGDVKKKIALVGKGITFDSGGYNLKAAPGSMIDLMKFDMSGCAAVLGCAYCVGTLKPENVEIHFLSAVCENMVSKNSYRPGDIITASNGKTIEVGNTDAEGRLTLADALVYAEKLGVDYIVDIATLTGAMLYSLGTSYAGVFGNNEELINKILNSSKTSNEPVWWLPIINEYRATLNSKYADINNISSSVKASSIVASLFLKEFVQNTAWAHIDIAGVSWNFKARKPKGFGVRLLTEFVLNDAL

[10] = target: T3, Polyadenylate-binding protein 1; test: MLLE binding blockers, Cy5 peptide tracer – biochemical, fluorescence polarization, Cy5-PAM2 peptide, secondary, miRNA deadenylation inhibitor project, dose response (AID 602260); format: functional; conditions: read-out: IC50_Mean
[11] = target: T5, Zinc finger protein mex-5 (Caenorhabditis elegans, UniProt Q9XUB2); test: potency of MEX-5 RNA-binding blockers – biochemical, C. elegans, fluorescence polarization, dose response (AID 1960)
T5 sequence (Q9XUB2 whole entry): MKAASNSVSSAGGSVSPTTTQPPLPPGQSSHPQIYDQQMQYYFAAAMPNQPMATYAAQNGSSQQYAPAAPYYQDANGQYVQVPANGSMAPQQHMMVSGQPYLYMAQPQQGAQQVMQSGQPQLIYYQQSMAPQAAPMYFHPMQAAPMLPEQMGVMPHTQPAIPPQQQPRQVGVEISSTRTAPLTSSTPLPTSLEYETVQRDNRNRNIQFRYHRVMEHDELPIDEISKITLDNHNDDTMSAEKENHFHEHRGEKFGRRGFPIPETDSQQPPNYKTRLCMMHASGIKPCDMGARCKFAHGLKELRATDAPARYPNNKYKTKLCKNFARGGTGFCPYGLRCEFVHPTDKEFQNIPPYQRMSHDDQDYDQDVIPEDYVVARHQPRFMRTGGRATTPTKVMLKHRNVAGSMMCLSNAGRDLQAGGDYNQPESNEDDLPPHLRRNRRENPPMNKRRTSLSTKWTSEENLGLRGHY

[12] = target: T6, RNA-binding protein pos-1 (Caenorhabditis elegans, UniProt G5EF15); test: disruptors of C. elegans POS-1 RNA interaction – biochemical, fluorescence polarization, dose response (AID 1964);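 note: purified POS-1 fused to maltose binding protein made in E. coli; potency of compounds blocking POS-1 binding to fluorescent RNA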
T6 sequence (G5EF15 whole entry): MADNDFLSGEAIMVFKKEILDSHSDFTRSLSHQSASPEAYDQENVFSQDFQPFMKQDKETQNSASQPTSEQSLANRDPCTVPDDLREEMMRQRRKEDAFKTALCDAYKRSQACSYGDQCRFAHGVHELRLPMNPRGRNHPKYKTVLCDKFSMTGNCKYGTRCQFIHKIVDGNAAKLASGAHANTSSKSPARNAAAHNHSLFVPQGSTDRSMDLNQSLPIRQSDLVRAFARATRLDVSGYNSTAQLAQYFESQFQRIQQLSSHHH

Vero = test: cells; format: functional; conditions: Chlorocebus sabaeus
Large T antigen = Large T antigen (Simian virus 40, UniProt P03070); format: functional, Betapolyomavirus macacae;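 note: Confirmatory-stage PubChem screen for compounds that inhibit SV40 T antigen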
[13] = target: Glucose-6-phosphate 1-dehydrogenase (Homo sapiens, UniProt P11413); test: inhibition of Homo sapiens G6PD, dose series – biochemical, fluorescence, selectivity assay for P. falciparum G6PD inhibitor project, dose response (AID 504792); format: functional
Cytochrome P450 3A4 = Cytochrome P450 3A4 (Homo sapiens, UniProt P08684);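 note: CYP3A4 tested as one member of a cytochrome P450 panel screen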
Cytochrome P450 2C19 = Cytochrome P450 2C19 (Homo sapiens, UniProt P33261); test: Cytochrome panel assay with activity outcomes. Panel member name: p450-cyp2c19 Compounds with AC50 equal or less than 10 uM are considered active; format: functional; conditions: read-out: AC50
[14] = target: T7, Rac GTPase-activating protein 1 (Homo sapiens, UniProt Q9H0H5); test: blockers of MgcRacGAP-driven Rac1 GTP hydrolysis – biochemical, ADP Hunter fluorescence, primary and confirmatory, confirmation (AID 624330); format: functional
T7 sequence (Q9H0H5 whole entry): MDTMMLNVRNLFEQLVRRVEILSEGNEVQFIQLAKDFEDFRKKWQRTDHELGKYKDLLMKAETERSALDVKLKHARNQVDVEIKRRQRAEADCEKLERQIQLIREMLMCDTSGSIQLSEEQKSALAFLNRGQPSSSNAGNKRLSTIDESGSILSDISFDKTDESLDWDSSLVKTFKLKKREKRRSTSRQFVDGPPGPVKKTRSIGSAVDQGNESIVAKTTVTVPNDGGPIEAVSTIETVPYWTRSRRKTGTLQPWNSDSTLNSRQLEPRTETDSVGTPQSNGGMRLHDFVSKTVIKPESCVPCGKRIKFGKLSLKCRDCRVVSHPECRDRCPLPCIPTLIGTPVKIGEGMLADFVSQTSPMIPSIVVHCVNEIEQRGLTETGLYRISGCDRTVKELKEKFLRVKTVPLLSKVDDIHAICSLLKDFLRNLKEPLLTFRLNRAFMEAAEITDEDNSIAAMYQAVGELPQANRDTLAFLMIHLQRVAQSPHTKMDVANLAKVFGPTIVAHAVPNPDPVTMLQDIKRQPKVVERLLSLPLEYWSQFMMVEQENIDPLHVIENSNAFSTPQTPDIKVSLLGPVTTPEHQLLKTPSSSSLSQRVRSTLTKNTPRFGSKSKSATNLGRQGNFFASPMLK

[15] = reduction of Shn3 3'UTR-driven luciferase in osteoblasts – cell-based, Clone20 osteoblasts, firefly luciferase, cherry-picked, dose response (AID 624132); format: functional;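 note: firefly luciferase luminescence from reporter carrying the Shn3 3'UTR in osteoblasts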

Glucose-6-phosphate 1-dehydrogenase, sequence (P11413 whole entry): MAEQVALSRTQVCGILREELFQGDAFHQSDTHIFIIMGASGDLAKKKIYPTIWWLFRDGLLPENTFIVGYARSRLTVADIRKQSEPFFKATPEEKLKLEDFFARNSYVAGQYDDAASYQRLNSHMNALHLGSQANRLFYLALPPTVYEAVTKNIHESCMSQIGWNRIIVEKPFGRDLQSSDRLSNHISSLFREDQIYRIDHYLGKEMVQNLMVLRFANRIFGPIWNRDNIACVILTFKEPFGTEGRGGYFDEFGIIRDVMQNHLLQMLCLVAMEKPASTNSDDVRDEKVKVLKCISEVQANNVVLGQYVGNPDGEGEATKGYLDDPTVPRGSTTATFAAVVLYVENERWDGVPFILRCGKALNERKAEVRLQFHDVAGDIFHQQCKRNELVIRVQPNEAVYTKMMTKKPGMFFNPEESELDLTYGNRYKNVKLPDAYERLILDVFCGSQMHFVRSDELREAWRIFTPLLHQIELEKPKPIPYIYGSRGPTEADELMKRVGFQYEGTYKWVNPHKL
T2 sequence (P49327 whole entry): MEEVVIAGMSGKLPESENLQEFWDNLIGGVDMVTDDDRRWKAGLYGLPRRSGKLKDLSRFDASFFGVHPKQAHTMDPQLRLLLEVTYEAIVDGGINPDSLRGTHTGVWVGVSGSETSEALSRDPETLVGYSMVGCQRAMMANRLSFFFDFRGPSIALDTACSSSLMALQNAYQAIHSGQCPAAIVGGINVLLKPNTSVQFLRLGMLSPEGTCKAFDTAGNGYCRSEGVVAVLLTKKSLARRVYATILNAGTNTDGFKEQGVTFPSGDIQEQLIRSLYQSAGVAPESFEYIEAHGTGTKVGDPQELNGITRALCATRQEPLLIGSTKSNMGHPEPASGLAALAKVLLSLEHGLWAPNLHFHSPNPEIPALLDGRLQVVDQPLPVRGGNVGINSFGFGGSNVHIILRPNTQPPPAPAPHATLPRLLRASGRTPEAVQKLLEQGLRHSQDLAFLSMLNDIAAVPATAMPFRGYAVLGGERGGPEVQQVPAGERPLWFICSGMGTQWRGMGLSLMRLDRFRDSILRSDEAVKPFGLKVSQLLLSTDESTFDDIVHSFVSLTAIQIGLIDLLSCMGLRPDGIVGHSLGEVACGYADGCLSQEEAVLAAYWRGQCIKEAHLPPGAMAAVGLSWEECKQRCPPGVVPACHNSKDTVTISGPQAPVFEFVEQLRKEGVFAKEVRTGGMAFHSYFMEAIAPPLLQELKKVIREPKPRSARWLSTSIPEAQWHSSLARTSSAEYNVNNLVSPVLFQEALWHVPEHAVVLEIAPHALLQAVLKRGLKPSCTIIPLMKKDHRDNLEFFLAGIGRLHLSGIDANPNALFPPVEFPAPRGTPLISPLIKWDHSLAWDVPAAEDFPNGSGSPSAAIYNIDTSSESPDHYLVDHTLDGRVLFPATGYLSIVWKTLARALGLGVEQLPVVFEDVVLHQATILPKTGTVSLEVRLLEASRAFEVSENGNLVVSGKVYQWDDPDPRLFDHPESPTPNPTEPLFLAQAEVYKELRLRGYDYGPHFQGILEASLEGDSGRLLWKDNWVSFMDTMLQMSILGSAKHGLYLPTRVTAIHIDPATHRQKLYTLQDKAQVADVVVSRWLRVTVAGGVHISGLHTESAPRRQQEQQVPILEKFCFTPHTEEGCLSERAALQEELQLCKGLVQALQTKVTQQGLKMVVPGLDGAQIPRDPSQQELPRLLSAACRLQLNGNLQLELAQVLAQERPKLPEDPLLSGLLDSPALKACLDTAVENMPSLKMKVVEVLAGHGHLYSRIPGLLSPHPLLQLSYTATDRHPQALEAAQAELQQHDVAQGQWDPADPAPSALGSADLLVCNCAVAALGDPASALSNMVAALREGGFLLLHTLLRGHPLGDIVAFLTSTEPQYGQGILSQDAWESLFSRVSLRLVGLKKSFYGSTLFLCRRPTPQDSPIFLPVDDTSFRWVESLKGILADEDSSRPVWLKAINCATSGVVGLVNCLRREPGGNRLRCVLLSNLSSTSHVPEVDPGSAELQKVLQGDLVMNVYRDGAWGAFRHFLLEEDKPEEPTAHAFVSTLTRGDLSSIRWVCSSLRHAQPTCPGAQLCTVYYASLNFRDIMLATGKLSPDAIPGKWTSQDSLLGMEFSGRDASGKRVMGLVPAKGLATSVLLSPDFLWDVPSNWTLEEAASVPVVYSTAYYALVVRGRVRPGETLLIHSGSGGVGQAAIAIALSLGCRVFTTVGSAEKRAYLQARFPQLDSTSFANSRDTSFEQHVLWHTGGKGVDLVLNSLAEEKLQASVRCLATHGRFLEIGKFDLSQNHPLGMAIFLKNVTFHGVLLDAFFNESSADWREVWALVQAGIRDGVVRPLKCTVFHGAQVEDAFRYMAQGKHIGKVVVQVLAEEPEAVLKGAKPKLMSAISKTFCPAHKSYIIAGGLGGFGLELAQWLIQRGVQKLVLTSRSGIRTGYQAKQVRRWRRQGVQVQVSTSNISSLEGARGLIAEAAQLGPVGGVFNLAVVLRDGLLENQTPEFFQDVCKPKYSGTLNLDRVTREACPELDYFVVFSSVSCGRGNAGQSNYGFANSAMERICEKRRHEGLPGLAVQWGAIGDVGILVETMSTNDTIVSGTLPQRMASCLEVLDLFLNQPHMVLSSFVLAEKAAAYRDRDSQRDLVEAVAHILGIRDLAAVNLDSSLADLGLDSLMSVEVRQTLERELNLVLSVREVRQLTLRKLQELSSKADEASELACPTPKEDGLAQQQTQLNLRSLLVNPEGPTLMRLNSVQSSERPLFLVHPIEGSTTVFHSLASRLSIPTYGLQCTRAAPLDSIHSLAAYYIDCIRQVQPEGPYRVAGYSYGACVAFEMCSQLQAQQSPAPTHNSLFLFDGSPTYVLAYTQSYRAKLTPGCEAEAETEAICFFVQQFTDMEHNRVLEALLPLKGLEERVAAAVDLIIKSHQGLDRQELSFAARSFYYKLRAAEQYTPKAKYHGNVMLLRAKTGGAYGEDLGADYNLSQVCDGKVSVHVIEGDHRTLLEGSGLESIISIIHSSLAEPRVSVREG
Large T antigen, sequence (P03070 whole entry): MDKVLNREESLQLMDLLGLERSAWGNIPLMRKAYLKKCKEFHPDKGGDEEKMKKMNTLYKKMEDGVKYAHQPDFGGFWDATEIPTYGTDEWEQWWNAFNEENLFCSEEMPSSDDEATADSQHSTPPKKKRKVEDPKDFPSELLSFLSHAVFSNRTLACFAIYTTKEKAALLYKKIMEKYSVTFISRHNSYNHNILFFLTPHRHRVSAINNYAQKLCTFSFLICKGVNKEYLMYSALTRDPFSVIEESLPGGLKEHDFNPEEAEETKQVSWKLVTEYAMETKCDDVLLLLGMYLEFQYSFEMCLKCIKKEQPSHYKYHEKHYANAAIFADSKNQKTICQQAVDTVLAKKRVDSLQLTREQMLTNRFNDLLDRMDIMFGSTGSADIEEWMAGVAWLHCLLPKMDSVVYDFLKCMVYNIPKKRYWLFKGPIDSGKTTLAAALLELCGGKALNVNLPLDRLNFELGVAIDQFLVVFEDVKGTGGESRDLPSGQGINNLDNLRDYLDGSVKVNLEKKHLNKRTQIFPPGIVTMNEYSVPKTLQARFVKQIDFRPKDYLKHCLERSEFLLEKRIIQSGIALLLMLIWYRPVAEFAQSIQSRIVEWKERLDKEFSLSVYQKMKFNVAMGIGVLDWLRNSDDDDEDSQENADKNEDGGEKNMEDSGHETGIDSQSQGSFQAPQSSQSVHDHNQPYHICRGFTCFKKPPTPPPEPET
T3 sequence (P11940 whole entry, the tested form may be a part): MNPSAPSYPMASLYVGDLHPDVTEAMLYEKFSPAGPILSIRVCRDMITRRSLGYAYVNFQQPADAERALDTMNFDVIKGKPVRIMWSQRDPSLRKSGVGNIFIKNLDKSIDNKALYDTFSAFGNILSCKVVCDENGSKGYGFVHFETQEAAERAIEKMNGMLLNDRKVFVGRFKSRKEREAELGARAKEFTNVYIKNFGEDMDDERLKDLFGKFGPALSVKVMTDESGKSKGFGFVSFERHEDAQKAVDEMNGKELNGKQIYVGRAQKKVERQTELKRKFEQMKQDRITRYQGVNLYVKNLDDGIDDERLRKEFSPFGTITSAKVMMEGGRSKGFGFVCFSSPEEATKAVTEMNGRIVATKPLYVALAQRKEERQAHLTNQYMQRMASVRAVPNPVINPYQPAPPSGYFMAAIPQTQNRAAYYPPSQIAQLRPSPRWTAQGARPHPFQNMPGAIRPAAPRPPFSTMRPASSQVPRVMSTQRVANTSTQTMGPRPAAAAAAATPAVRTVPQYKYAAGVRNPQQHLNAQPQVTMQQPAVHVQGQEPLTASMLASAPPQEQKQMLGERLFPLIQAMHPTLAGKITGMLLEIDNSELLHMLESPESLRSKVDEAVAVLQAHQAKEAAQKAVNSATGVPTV
Cytochrome P450 2C19, sequence (P33261 whole entry): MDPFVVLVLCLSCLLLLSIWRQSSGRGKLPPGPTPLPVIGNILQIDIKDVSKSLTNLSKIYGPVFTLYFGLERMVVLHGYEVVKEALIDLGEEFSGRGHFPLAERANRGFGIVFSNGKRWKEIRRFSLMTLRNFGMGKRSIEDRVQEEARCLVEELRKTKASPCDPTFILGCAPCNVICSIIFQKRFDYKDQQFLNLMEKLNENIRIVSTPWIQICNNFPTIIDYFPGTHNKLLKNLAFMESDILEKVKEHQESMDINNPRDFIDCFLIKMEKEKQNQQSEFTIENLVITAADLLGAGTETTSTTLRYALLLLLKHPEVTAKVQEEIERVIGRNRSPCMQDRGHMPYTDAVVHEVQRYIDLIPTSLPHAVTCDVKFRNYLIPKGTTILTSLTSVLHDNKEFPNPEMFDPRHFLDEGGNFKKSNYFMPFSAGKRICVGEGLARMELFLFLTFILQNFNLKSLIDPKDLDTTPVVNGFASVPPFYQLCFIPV

CCN(CC)c1ncnc2ccc(Br)cc12
AC50 [1]: 3.74 µM (active) | AC50 [2]: 6 µM (active) | EC50 [3]: 13.8 µM (active) | AC50 [4]: 6.58 µM (active) | AC50 [5]: 3.83 µM (active)

O=C(NNc1cccc([N+](=O)[O-])c1)/C(=C\c1cccnc1)NC(=O)c1ccccc1
IC50 (Fatty acid synthase [6]): 6.04 µM (active) | IC50 (Fatty acid synthase [7]): 4.39 µM (active)

CCC(=O)C1=C(NCCc2c(C)[nH]c3ccc(C)cc23)CC(c2ccccc2)CC1=O (stereo unspecified)
EC50 [8]: 798 µM (active)

NC(=O)c1c(NC(=O)C2CCCO2)sc2c1CCCCC2 (stereo unspecified)
IC50 [9]: > 66 µM (inactive) | IC50 (Leucine aminopeptidase): 58.7 µM (active) | IC50 [10]: > 66 µM (inactive)

COc1ccccc1N1CCN(CC(O)COc2ccc3c(c2)CCC3)CC1 (stereo unspecified)
EC50 [8]: 5.92 µM (active)

CC(=O)Nc1c(O)nc(SCC(=O)Nc2sc3c(c2C#N)CCCCCC3)nc1O
IC50 (Leucine aminopeptidase): 27.9 µM (active)

CCOC(=O)CSC(C)C(=O)Nc1nnc(C(C)C)s1 (stereo unspecified)
IC50 (Leucine aminopeptidase): 37.7 µM (active)

Cc1[nH]c2ccccc2c1Cc1nnc(SCc2ccccc2)o1
EC50 [8]: 3.55 µM (active)

Cc1ccc(S(=O)(=O)N2CCN(S(=O)(=O)c3ccc(C)cc3)C2c2ccccc2)cc1
AC50 [1]: 4.72 µM (active) | AC50 [2]: 4.2 µM (active) | AC50 [4]: 1.58 µM (active) | AC50 [5]: 4.63 µM (active)

O=C1NC(=O)/C(=C2\C(=O)Nc3ccc([N+](=O)[O-])cc32)S1
IC50 (Fatty acid synthase [6]): 13.8 µM (active) | EC50 [11]: 21.5 µM (inconclusive) | EC50 [12]: 13.2 µM (active) | IC50 (Fatty acid synthase [7]): 9.24 µM (active)

COc1cc(/C=C/C(=O)c2ccc(NS(=O)(=O)c3ccc(C)cc3)cc2)ccc1OC(F)F
CC50 (Vero): 22.5 µM (active)

CCN(C[C@H]1N[C@@](CC)(C(=O)OC)[C@H]2C(=O)N(Cc3ccccc3)C(=O)[C@@H]12)C(=O)Nc1ccc(Cl)cc1
AC50 [1]: 0.367 µM (active) | AC50 [2]: < 0.26 µM (active) | AC50 [4]: 0.277 µM (active) | AC50 [5]: < 0.26 µM (active)

COC(=O)C1=C(O)/C(=C/c2cccc(OC)c2O)N=C1C
IC50 (Large T antigen): 14.8 µM (active)

COc1ccc(-c2c[nH]nc2N)cc1
IC50 (Leucine aminopeptidase): 60.8 µM (active)

COc1cc(NC(C)CCc2ccccc2)cc(OC)c1OC (stereo unspecified)
IC50 [13]: 43.3 µM (inactive)

CCc1ccc(C(=O)COC(=O)c2cc([N+](=O)[O-])ccc2NCCO)cc1
IC50 (Fatty acid synthase [6]): 1.87 µM (active) | IC50 (Fatty acid synthase [7]): 3.82 µM (active)

COc1ccc(CNC(=O)Cc2cn(C)c3ccccc23)c(OC)c1
IC50 [13]: > 80 µM (inactive)

Cc1ccc(NC(=O)CN(C)C(=O)CSc2n[nH]c(N)n2)cc1
AC50 (Cytochrome P450 3A4): 31.6 µM (inconclusive) | IC50 (Leucine aminopeptidase): 44.7 µM (active) | AC50 (Cytochrome P450 2C19): 0.0355 µM (inconclusive)

COC(=O)c1cccc(NC(=O)Cn2cnc3ccccc3c2=O)c1
IC50 (Leucine aminopeptidase): 43.5 µM (active)

CCOC(=O)Cc1cc(O)n2nc(C(C)(C)C)cc2n1
IC50 [13]: > 80 µM (inactive)

O=C(c1ccc(Cl)c(Cl)c1)N1CCC(=O)N(C(COCc2ccccc2)Cc2ccccc2)CC1 (stereo unspecified)
EC50 [8]: 2.88 µM (active)

Cc1ccsc1/C=C1/C(=O)NN(c2ccccc2)C1=O
IC50 (Large T antigen): 28.1 µM (active)

Cc1cc(NC(=O)/C=C/C(=O)N(c2ccccc2C)C(C(=O)NC2CCCC2)c2ccc(F)cc2)no1 (stereo unspecified)
CC50 (Vero): 12.1 µM (active)

O=C(c1cc2sccc2n1Cc1ccc(F)cc1)N1CCCc2ccccc21
EC50 [8]: 4.88 µM (active)

N#CC1CCN(C(=O)c2ccc3c(Cl)c4c(nc3c2)CCCC4)CC1
IC50 (Fatty acid synthase [6]): 2.16 µM (active) | IC50 (Fatty acid synthase [7]): 1.89 µM (active)

CCCCN(Cc1ccccc1)S(=O)(=O)c1cc(Br)cc2c1N(C(C)=O)C(C)C2 (stereo unspecified)
EC50 [8]: 18.2 µM (active)

C/C(=N/Nc1ccc(C(=O)O)cc1)c1ccc2c(c1)Nc1ccccc1S2
IC50 [14]: 50.6 µM (active) | IC50 (Fatty acid synthase [6]): 13.2 µM (active) | IC50 (Fatty acid synthase [7]): 11.1 µM (active)

CCN(CC)S(=O)(=O)c1ccc(N2CCOCC2)c(NC(=O)c2nn(C(C)C)c(=O)c3ccccc23)c1
AC50 [15]: 15.6 µM (active)

CCOC1=C2[C@@H](CN(S(=O)(=O)c3ccccc3C)[C@H]2c2ccc(Cl)cc2)[C@H]2C(=O)NC(=O)[C@H]2C1
AC50 [1]: 7.02 µM (active) | AC50 [2]: 3.92 µM (active) | AC50 [4]: 19.5 µM (active) | AC50 [5]: 3.71 µM (active)

O=C(CCC(=O)Nc1ccccc1Cl)N/N=C/c1ccccc1
IC50 [13]: 31.6 µM (inactive)

N=C(N)N/N=C/c1ccc(Cl)c(Cl)c1
CC50 (Vero): 21.4 µM (active)
